# According to ChEMBL document CHEMBL3608289, “Miltirone Is a Dual Inhibitor of P-Glycoprotein and Cell Growth in Doxorubicin-Resistant HepG2 Cells” (J Nat Prod, 2015):
# The source made the active and inactive calls. The calls are words filed in the database; no cut-off is given here.
# Experiments:
# HepG2 [1] = assay: Induction of necrosis in human HepG2 cells assessed as LDH leakage at 25 uM after 24 hrs; type: functional, cell-based
# [2] = target: T1, MAP kinase p38 (Homo sapiens) (UniProt O15264+Q15759+Q16539+P53778); assay: Inhibition of p38 MAPK phosphorylation in human doxorubicin-resistant HepG2 cells expressing p-gp at 1.56 to 25 uM by Western blot analysis in presence of SB203580; type: cell-based
# HepG2 [3] = assay: Cytotoxicity against human doxorubicin-resistant HepG2 cells expressing p-gp assessed as combination index after 24 hrs by MTT assay in presence of doxorubicin; type: functional
# HepG2 [4] = assay: Induction of apoptosis in human HepG2 cells assessed as activation of caspase-3/8/9 at 12.5 after 24 hrs by Western blotting in presence of Z-LEHD-FMK; type: functional, cell-based
# HepG2 [5] = assay: Induction of apoptosis in human HepG2 cells assessed as activation of caspase-3/8/9 at 12.5 after 24 hrs by Western blotting in presence of trolox; type: functional, cell-based
# HepG2 [6] = assay: Induction of ROS generation in human HepG2 cells at 25 uM after 15 to 30 mins using H2DCFH dye by confocal microscopy; type: functional, cell-based
# HepG2 [7] = assay: Induction of apoptosis in human doxorubicin-resistant HepG2 cells expressing p-gp assessed as activation of caspase-3/8/9 at 12.5 after 24 hrs by Western blotting in presence of trolox; type: functional, cell-based
# HepG2 [8] = assay: Induction of necrosis in human HepG2 cells assessed as LDH leakage at >50 uM after 24 hrs; type: functional, cell-based
# HepG2 [9] = assay: Induction of oxidative stress in human HepG2 cells assessed as decrease of GSSG level per gram of protein at 25 uM after 24 hrs using DTNB by enzymatic kinetic method relative to control; type: functional
# HepG2 [10] = assay: Increase of SAPK/JNK phosphorylation in human doxorubicin-resistant HepG2 cells expressing p-gp at 1.56 to 25 uM by Western blot analysis in presence of SB203580; type: cell-based
# [11] = target: T1, MAP kinase p38 (Homo sapiens); assay: Inhibition of p38 MAPK phosphorylation in human doxorubicin-resistant HepG2 cells expressing p-gp at 1.56 to 25 uM by Western blot analysis in presence of NAC; type: cell-based
# HepG2 [12] = assay: Induction of apoptosis in human HepG2 cells assessed as increase in PARP cleavage after 24 hrs by Western blotting; type: functional, cell-based
# [13] = Cytotoxicity against human PLC/PRF/5 cells after 24 hrs by MTT assay in presence of doxorubicin; type: functional, cell-based; conditions: PLC-PRF-5, 24 h
# [14] = target: ATP-dependent translocase ABCB1 (Homo sapiens, UniProt P08183); assay: Inhibition of p-glycoprotein in human doxorubicin-resistant HepG2 cells assessed as reduction of doxorubicin efflux after 1 hr by flow cytometry; type: cell-based; conditions: hepg2, 1 h
# Chain of ATP-dependent translocase ABCB1 (P08183 whole entry): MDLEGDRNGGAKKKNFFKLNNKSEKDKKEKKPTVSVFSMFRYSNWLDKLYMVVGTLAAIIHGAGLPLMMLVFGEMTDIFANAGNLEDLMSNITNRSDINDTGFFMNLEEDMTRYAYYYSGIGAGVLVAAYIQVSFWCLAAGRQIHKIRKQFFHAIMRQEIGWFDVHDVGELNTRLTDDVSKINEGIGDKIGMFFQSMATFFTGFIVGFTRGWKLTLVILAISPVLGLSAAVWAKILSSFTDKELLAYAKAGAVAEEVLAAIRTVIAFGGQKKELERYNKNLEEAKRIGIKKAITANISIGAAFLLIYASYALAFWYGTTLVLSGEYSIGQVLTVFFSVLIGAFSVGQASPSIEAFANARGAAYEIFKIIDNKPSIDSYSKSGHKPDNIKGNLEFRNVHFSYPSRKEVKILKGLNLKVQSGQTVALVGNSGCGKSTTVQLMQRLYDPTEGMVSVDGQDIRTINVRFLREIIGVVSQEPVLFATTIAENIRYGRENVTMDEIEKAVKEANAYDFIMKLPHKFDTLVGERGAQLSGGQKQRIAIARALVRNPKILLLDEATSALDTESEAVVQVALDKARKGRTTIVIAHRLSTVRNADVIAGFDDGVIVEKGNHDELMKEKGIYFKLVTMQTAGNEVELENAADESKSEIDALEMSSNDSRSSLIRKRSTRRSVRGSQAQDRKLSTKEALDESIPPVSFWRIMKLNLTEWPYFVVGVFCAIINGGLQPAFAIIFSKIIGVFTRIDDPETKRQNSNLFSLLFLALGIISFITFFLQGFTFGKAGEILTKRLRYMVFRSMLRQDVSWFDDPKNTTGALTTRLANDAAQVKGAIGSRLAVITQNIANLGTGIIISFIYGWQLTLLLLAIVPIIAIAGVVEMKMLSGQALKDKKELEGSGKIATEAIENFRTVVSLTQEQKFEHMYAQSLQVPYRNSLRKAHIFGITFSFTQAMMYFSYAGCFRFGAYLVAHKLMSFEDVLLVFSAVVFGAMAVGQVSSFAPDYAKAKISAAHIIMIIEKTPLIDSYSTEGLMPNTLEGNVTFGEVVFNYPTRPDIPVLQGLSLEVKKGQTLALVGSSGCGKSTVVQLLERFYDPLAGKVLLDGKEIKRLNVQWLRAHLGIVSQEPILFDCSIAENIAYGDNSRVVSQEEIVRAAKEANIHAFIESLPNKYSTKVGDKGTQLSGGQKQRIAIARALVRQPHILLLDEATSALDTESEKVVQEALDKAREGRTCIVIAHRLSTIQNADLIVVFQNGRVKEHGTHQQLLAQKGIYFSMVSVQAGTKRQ
# HepG2 [15] = assay: Cytotoxicity against human HepG2 cells after 24 hrs by MTT assay; type: functional, cell-based; conditions: HepG2, 24 h
# HepG2 [16] = assay: Effect on nonphosphorylated p38 MAPK level in human doxorubicin-resistant HepG2 cells expressing p-gp at 25 uM by Western blot analysis; type: ADME, cell-based; conditions: hepg2, 25 µM
# HepG2 [17] = assay: Induction of necrosis in human doxorubicin-resistant HepG2 cells expressing p-gp assessed as LDH leakage at 25 uM after 24 hrs; type: functional, cell-based
# HepG2 [18] = assay: Induction of oxidative stress in human HepG2 cells assessed as decrease of GSH level per gram of protein at 25 uM after 24 hrs using DTNB by enzymatic kinetic method relative to control; type: functional
# [19] = target: T1, MAP kinase p38 (Homo sapiens); assay: Inhibition of p38 MAPK phosphorylation in human doxorubicin-resistant HepG2 cells expressing p-gp at 1.56 to 25 uM by Western blot analysis; type: cell-based
# HepG2 [20] = assay: Effect on nonphosphorylated SAPK/JNK level in human HepG2 cells at 25 uM by Western blot analysis; type: ADME, cell-based; conditions: hepg2, 25 µM
# HepG2 [21] = assay: Induction of ROS generation in human HepG2 cells at 25 uM after 15 to 30 mins using H2DCFH dye by confocal microscopy in presence of PEG-SOD; type: functional, cell-based
# [22] = target: T2, Mitogen-activated protein kinase; ERK1/ERK2 (Homo sapiens) (UniProt P27361+P28482); assay: Inhibition of ERK1/2 phosphorylation in human doxorubicin-resistant HepG2 cells expressing p-gp at 1.56 to 25 uM by Western blot analysis; type: cell-based
# T2 sequence (P27361 whole entry, looked up): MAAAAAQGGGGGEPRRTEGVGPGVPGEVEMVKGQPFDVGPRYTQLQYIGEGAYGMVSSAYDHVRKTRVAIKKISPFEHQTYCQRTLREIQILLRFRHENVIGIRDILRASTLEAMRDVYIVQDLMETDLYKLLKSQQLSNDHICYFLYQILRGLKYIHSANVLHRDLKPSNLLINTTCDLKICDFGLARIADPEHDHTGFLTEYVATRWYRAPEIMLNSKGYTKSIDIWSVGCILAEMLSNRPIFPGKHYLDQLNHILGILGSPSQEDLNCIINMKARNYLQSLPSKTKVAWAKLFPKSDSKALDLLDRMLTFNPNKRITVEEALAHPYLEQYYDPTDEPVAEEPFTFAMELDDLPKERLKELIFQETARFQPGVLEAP
# T2 sequence (P28482 whole entry, looked up): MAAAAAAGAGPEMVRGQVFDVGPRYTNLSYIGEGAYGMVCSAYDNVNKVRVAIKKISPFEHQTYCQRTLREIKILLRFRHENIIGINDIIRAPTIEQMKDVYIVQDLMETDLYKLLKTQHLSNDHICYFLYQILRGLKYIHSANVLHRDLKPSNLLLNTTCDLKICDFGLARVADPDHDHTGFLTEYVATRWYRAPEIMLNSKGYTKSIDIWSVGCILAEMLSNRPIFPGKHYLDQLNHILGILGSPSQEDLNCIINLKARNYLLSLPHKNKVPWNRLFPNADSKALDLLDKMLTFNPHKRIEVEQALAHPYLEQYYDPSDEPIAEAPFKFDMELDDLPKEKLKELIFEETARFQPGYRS
# [23] = Cytotoxicity against human Hep3B cells after 24 hrs by MTT assay; type: functional, cell-based, Hep 3B2
# HepG2 [24] = assay: Induction of ROS generation in human HepG2 cells at 25 uM after 15 to 30 mins using H2DCFH dye by confocal microscopy in presence of PEG-catalase; type: functional, cell-based
# HepG2 [25] = assay: Induction of oxidative stress in human doxorubicin-resistant HepG2 cells expressing p-gp assessed as decrease of GSH level per gram of protein at 25 uM after 24 hrs using DTNB by enzymatic kinetic method relative to control; type: functional
# HepG2 [26] = assay: Induction of apoptosis in human HepG2 cells assessed as activation of caspase-3/8/9 after 24 hrs by Western blotting; type: functional, cell-based
# HepG2 [27] = assay: Induction of oxidative stress in human doxorubicin-resistant HepG2 cells expressing p-gp assessed as decrease of GSSG level per gram of protein at 25 uM after 24 hrs using DTNB by enzymatic kinetic method relative to control; type: functional, cell-based
# HepG2 [28] = assay: Cytotoxicity against human doxorubicin-resistant HepG2 cells expressing p-gp after 24 hrs by MTT assay; type: functional, cell-based; conditions: HepG2, 24 h
# [29] = target: T2, Mitogen-activated protein kinase; ERK1/ERK2 (Homo sapiens); assay: Inhibition of ERK1/2 phosphorylation in human HepG2 cells at 1.56 to 25 uM by Western blot analysis in presence of NAC; type: cell-based
# HepG2 [30] = assay: Induction of apoptosis in human HepG2 cells assessed as activation of caspase-3/8/9 at 12.5 after 24 hrs by Western blotting in presence of Z-IETD-FMK; type: functional, cell-based
# [31] = target: T2, Mitogen-activated protein kinase; ERK1/ERK2 (Homo sapiens); assay: Inhibition of ERK1/2 phosphorylation in human HepG2 cells at 1.56 to 25 uM by Western blot analysis; type: cell-based
# HepG2 [32] = assay: Increase of SAPK/JNK phosphorylation in human HepG2 cells at 1.56 to 25 uM by Western blot analysis in presence of NAC; type: cell-based
# HepG2 [33] = assay: Induction of apoptosis in human doxorubicin-resistant HepG2 cells expressing p-gp assessed as activation of caspase-3/8/9 at 12.5 after 24 hrs by Western blotting in presence of Z-VAD-FMK; type: functional, cell-based
# HepG2 [34] = assay: Effect on nonphosphorylated ERK1/ERK2 level in human doxorubicin-resistant HepG2 cells expressing p-gp at 25 uM by Western blot analysis; type: ADME, cell-based; conditions: hepg2, 25 µM
# HepG2 [35] = assay: Induction of apoptosis in human doxorubicin-resistant HepG2 cells expressing p-gp assessed as activation of caspase-3/8/9 at 12.5 after 24 hrs by Western blotting in presence of Z-IETD-FMK; type: functional, cell-based
# HepG2 [36] = assay: Competitive inhibition of p-glycoprotein in doxorubicin-resistant human HepG2 cells assessed as reduction of doxorubicin efflux after 1 hr by primary Lineweaver-Burk plot analysis; type: cell-based
# HepG2 [37] = assay: Increase of SAPK/JNK phosphorylation in human HepG2 cells at 1.56 to 25 uM by Western blot analysis in presence of SB203580; type: cell-based
compound,measurement,setting,value
CC(C)C1=Cc2ccc3c(c2C(=O)C1=O)CCCC3(C)C [MILTIRONE],Activity,HepG2 [1],inactive
same,inhibition,[2],inactive
same,CI,HepG2 [3],1.56
same,Activity,HepG2 [4],inactive
same,Activity,HepG2 [5],inactive
same,Activity,HepG2 [6],Active
same,Activity,HepG2 [7],inactive
same,Activity,HepG2 [8],Active
same,Activity,HepG2 [9],3.5 µmol
same,Activity,HepG2 [10],Active
same,inhibition,[11],inactive
same,Activity,HepG2 [12],Active
same,EC50,[13],17.4 µM
same,inhibition (INH),[14],Active
same,EC50,HepG2 [15],7.1 µM
same,Activity,HepG2 [16],Non-toxic
same,Activity,HepG2 [17],inactive
same,Activity,HepG2 [18],2.4 µmol
same,inhibition,[19],Active
same,Activity,HepG2 [20],Non-toxic
same,Activity,HepG2 [21],inactive
same,inhibition,[22],Active
same,EC50,[23],14.8 µM
same,Activity,HepG2 [24],inactive
same,Activity,HepG2 [25],1.2 µmol
same,Activity,HepG2 [26],Active
same,Activity,HepG2 [27],inactive
same,EC50,HepG2 [28],12 µM
same,inhibition,[29],inactive
same,Activity,HepG2 [30],inactive
same,inhibition,[31],Active
same,inhibition,HepG2 [32],inactive
same,Activity,HepG2 [33],inactive
same,Activity,HepG2 [34],Non-toxic
same,Activity,HepG2 [35],inactive
same,inhibition,HepG2 [36],Active
same,Activity,HepG2 [37],inactive
